From patent publication US12448399B2, “Cereblon-based KRAS degrading PROTACs and uses related thereto” (Arvinas Operations, Inc., priority 2023, dated 2025) come the findings set out here.

The assay has as its target T1, KRas-G12D (Homo sapiens, UniProt P01116, G12D).
T1 construct: insert the HiBiT tag onto the N-terminus of one or more of the endogenous KRas alleles; host or cells: AsPC-1 HiBiT-KRasG12D knock-in clone (one tagged allele, two untagged KRasG12D alleles)
The assay is described as follows: HiBiT Degradation Assay (G12D), AsPC-1 HiBiT-KRasG12D cells, 24 hr. Type of assay: cell-based. As to conditions: for DC50: AsPC-1 cells; for Dmax: ASPC1, AsPC-1 cells, maximum degradation observed. The method in brief:
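Degradation was read after 24 hr compound exposure (0.5% DMSO, 37° C) by Nano-Glo HiBiT lytic luminescence in AsPC-1 cells carrying a HiBiT tag on one of three KRasG12D alleles. Signal relative to DMSO gave DC50 and Dmax by 4-parameter fit; alamar blue fluorescence monitored cytotoxicity.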

T1 sequence (P01116 1-188 isoform P01116-2 G12D): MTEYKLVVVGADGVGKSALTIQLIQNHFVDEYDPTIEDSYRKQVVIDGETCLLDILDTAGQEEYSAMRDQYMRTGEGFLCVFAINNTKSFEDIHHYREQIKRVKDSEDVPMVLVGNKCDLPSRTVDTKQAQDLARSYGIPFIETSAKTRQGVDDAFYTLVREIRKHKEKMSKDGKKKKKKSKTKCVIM

As to `CCc1cccc2cc(O)cc(-c3ncc4c(N5CC6CCC(C5)N6)nc(OC[C@@]56CCCN5[C@H](COC(=O)N5CCN(c7cccc8c7CN(C7CCC(=O)NC7=O)C8=O)CC5)CC6)nc4c3F)c12` (stereo partly drawn) [Compound 60, [(3S,8S)-8-[[4-(3,8-diazabicyclo[3.2.1]octan-3-yl)-7-(8-ethyl-3-hydroxy-1-naphthyl)-8-fluoro-pyrido[4,3-d]pyrimidin-2-yl]oxymethyl]-1,2,3,5,6,7-hexahydropyrrolizin-3-yl]methyl 4-[2-(2,6-dioxo-3-piperidyl)-1-oxo-isoindolin-4-yl]piperazine-1-carboxylate], the DC50 was 0.1 to 5.25 µM. With `C#Cc1c(F)ccc2cc(O)cc(-c3ncc4c(C5CC6CCC(C5)N6)nc(OCCN5CCC(CN6CC7(CCN(c8ccc9c(c8)CN(C8CCC(=O)NC8=O)C9=O)CC7)C6)CC5)nc4c3F)c12` (stereo not shown) [Compound 72], the Dmax was more than 70% and the DC50 was less than 5.1 µM. `C#Cc1c(F)ccc2cc(O)cc(-c3cnc4c(N5CC6CCC(C5)N6)nc(OCCN5CCC(CC6CCN(CC7CCN(c8ccc9c(c8F)CN(C8CCC(=O)NC8=O)C9=O)CC7)CC6)CC5)nc4c3)c12` (stereo not shown) [Compound 107] displayed a DC50 of more than 1 µM. Turning to `C#Cc1c(F)ccc2cc(O)cc(-c3ncc4c(N5CC6CCC(C5)N6)nc(OCCN5CCC(C(F)(F)C6CCN(CC7CCN(c8ccc9c(c8F)CN(C8CCC(=O)NC8=O)C9=O)CC7)CC6)CC5)nc4c3F)c12` (stereo not shown) [Compound 79, 3-{5-[4-({4-[(1-{2-[(4-{3,8-diazabicyclo[3.2.1]octan-3-yl}-7-(8-ethynyl-7-fluoro-3-hydroxynaphthalen-1-yl)-8-fluoropyrido[4,3-d]pyrimidin-2-yl)oxy]ethyl}piperidin-4-yl)difluoromethyl]piperidin-1-yl}methyl)piperidin-1-yl]-4-fluoro-1-oxo-2,3-dihydro-1H-isoindol-2-yl}piperidine-2,6-dione], the Dmax was more than 70% and the DC50 is less than 5.1 µM. The compound `C#Cc1c(F)ccc2cc(O)cc(-c3ncc4c(N5CC6CCC(C5)N6)nc(OCC5(CN6CCN(CC7CCN(c8ccc9c(c8Cl)CN(C8CCC(=O)NC8=O)C9=O)CC7)CC6)CC5)nc4c3F)c12` (stereo not shown) [Compound 186, 3-{4-chloro-5-[4-({4-[(1-{[(4-{3,8-diazabicyclo[3.2.1]octan-3-yl}-7-(8-ethynyl-7-fluoro-3-hydroxynaphthalen-1-yl)-8-fluoropyrido[4,3-d]pyrimidin-2-yl)oxy]methyl}cyclopropyl)methyl]piperazin-1-yl}methyl)piperidin-1-yl]-1-oxo-2,3-dihydro-1H-isoindol-2-yl}piperidine-2,6-dione] displayed a Dmax of more than 70% and a DC50 of less than 5.1 µM.

Regarding `CCc1cccc2cc(O)cc(-c3ncc4c(N5CC6CCC(C5)N6)nc(OCCN5CCC(CC6CCN(CC7CCN(c8cccc9c8CN(C8CCC(=O)NC8=O)C9=O)CC7)CC6)CC5)nc4c3F)c12` (stereo not shown) [Compound 55, 3-[4-[4-[[4-[[1-[2-[4-(3,8-diazabicyclo[3.2.1]octan-3-yl)-7-(8-ethyl-3-hydroxy-1-naphthyl)-8-fluoro-pyrido[4,3-d]pyrimidin-2-yl]oxyethyl]-4-piperidyl]methyl]-1-piperidyl]methyl]-1-piperidyl]-1-oxo-isoindolin-2-yl]piperidine-2,6-dione], the DC50 was less than 5.1 µM. In the case of `C#Cc1c(F)ccc2cc(O)cc(-c3ncc4c(N5CC6CCC(C5)N6)nc(OC[C@@H]5C[C@@H](OC6CCN(CC7CCN(c8ccc9c(c8F)CN(C8CCC(=O)NC8=O)C9=O)CC7)CC6)CN5C)nc4c3F)c12` (stereo partly drawn) [Compound 122, 3-(5-{4-[(4-{[(3R,5S)-5-{[(4-{3,8-diazabicyclo[3.2.1]octan-3-yl}-7-(8-ethynyl-7-fluoro-3-hydroxynaphthalen-1-yl)-8-fluoropyrido[4,3-d]pyrimidin-2-yl)oxy]methyl}-1-methylpyrrolidin-3-yl]oxy}piperidin-1-yl)methyl]piperidin-1-yl}-4-fluoro-1-oxo-2,3-dihydro-1H-isoindol-2-yl)piperidine-2,6-dione], the Dmax is more than 70% and the DC50 is less than 5.1 µM. In the same order, the values of `C#Cc1c(F)ccc2cc(O)cc(-c3ccc4c(N5CC6CCC(C5)N6)nc(OCCN5CCC(CC6CCN(CC7CCN(c8ccc9c(c8F)CN(C8CCC(=O)NC8=O)C9=O)CC7)CC6)CC5)nc4c3)c12` (stereo not shown) [Compound 108] are not above 25% and less than 5.1 µM. `C#Cc1c(F)ccc2cc(O)cc(-c3ncc4c(N5CC6CCC(C5)N6)nc(OCCN5CCC(CN6CCN(CC7CCN(c8ccc9c(c8)n(C)c(=O)n9C8CCC(=O)NC8=O)CC7)CC6)CC5)nc4c3F)c12` (stereo not shown) [Compound 221, 3-{5-[4-({4-[(1-{2-[(4-{3,8-diazabicyclo[3.2.1]octan-3-yl}-7-(8-ethynyl-7-fluoro-3-hydroxynaphthalen-1-yl)-8-fluoropyrido[4,3-d]pyrimidin-2-yl)oxy]ethyl}piperidin-4-yl)methyl]piperazin-1-yl}methyl)piperidin-1-yl]-3-methyl-2-oxo-2,3-dihydro-1H-1,3-benzodiazol-1-yl}piperidine-2,6-dione]: the Dmax is more than 70% and the half-maximal degradation concentration (DC50) was less than 5.1 µM.

On to `CCc1cccc2cc(O)cc(-c3ncc4c(N5CC6CCC(C5)N6)nc(OCCN5CCC(CN6CCN(CC7CCN(c8ccc9c(c8)C(=O)C(C8CCC(=O)NC8=O)C9=O)CC7)CC6)CC5)nc4c3F)c12` (stereo not shown) [Compound 20], for which the DC50 was 0.1 to 5.25 µM. As for `C#Cc1c(F)ccc2cc(O)cc(-c3ncc4c(N5CC6CCC(C5)N6)nc(OCCN5CCC(CN6CCN(CC7CCN(c8ccc9c(c8F)CN(C8CCC(=O)NC8=O)C9=O)CC7)C(C)(C)C6)CC5)nc4c3F)c12` (stereo not shown) [Compound 169, 3-{5-[4-({4-[(1-{2-[(4-{3,8-diazabicyclo[3.2.1]octan-3-yl}-7-(8-ethynyl-7-fluoro-3-hydroxynaphthalen-1-yl)-8-fluoropyrido[4,3-d]pyrimidin-2-yl)oxy]ethyl}piperidin-4-yl)methyl]-2,2-dimethylpiperazin-1-yl}methyl)piperidin-1-yl]-4-fluoro-1-oxo-2,3-dihydro-1H-isoindol-2-yl}piperidine-2,6-dione], the Dmax is more than 70% and the DC50 is less than 5.1 µM. For the compound `CCc1cccc2cc(O)cc(-c3ncc4c(N5CC6CCC(C5)N6)nc(OCCN5CCC(CN6CCN(c7ccc8c(c7)C(=O)N(C7CCC(=O)NC7=O)C8=O)CC6)CC5)nc4c3F)c12` (stereo not shown) [Compound 32], the DC50 was 0.25 to 1 µM. Same read-out and setting: the same measure for `C#Cc1c(F)ccc2cc(O)cc(-c3ncc4c(N5CC6CCC(C5)N6)nc(OC[C@@H]5CC[C@@H](CN6CCN(CC7CCN(c8ccc9c(c8)n(C(C)C)c(=O)n9C8CCC(=O)NC8=O)CC7)CC6)N5C)nc4c3F)c12` (stereo partly drawn) [Compound 211, 3-(5-{4-[(4-{[(2S,5S)-5-{[(4-{3,8-diazabicyclo[3.2.1]octan-3-yl}-7-(8-ethynyl-7-fluoro-3-hydroxynaphthalen-1-yl)-8-fluoropyrido[4,3-d]pyrimidin-2-yl)oxy]methyl}-1-methylpyrrolidin-2-yl]methyl}piperazin-1-yl)methyl]piperidin-1-yl}-2-oxo-3-(propan-2-yl)-2,3-dihydro-1H-1,3-benzodiazol-1-yl)piperidine-2,6-dione]: less than 5.1 µM. On the same count and under the same terms, in the case of `CCc1cccc2cc(O)cc(-c3ncc4c(N5CC6CCC(C5)N6)nc(OCCN5CCC(CN6CCC(Oc7ccc8c(c7)C(=O)N(C7CCC(=O)NC7=O)C8=O)CC6)CC5)nc4c3F)c12` (stereo not shown) [Compound 8] it was 0.25 to 1 µM. Still for that read-out and setting: the same measure for `CCc1cccc2cc(O)cc(-c3ncc4c(N5CC6CCC(C5)N6C)nc(OC[C@]56CCCN5[C@@H](COC(=O)N5CCN(c7cccc8c7CN(C7CCC(=O)NC7=O)C8=O)CC5)CC6)nc4c3F)c12` (stereo partly drawn) [Compound 51, [(3R,8R)-8-[[7-(8-ethyl-3-hydroxy-1-naphthyl)-8-fluoro-4-(8-methyl-3,8-diazabicyclo[3.2.1]octan-3-yl)pyrido[4,3-d]pyrimidin-2-yl]oxymethyl]-1,2,3,5,6,7-hexahydropyrrolizin-3-yl]methyl4-[2-(2,6-dioxo-3-piperidyl)-1-oxo-isoindolin-4-yl]piperazine-1-carboxylate]: more than 1 µM. For `C#Cc1c(F)ccc2cc(O)cc(-c3ncc4c(N5CC6CCC(C5)N6)nc(OCCN5CCC(CN6CCC(CC7CCN(c8ccc9c(c8F)n(C)c(=O)n9C8CCC(=O)NC8=O)CC7)CC6)CC5)nc4c3F)c12` (stereo not shown) [Compound 166, 3-{5-[4-({1-[(1-{2-[(4-{3,8-diazabicyclo[3.2.1]octan-3-yl}-7-(8-ethynyl-7-fluoro-3-hydroxynaphthalen-1-yl)-8-fluoropyrido[4,3-d]pyrimidin-2-yl)oxy]ethyl}piperidin-4-yl)methyl]piperidin-4-yl}methyl)piperidin-1-yl]-4-fluoro-3-methyl-2-oxo-2,3-dihydro-1H-1,3-benzodiazol-1-yl}piperidine-2,6-dione], the Dmax was more than 70% and the DC50 was less than 5.1 µM. For the compound `CCc1cccc2cc(O)cc(-c3ncc4c(N5CC6CCC(C5)N6)nc(OCCN5CCC6(CC5)CN(c5cccc7c5CN(C5CCC(=O)NC5=O)C7=O)C6)nc4c3F)c12` (stereo not shown) [Compound 141], the DC50 is more than 1 µM. In turn, `C#Cc1c(F)ccc2cc(O)cc(-c3ncc4c(N5CC6CCC(C5)N6)nc(OCCN5CCC(CC6CCN(c7ccc8c(c7)n(C)c(=O)n8C7CCC(=O)NC7=O)CC6)CC5)nc4c3F)c12` (stereo not shown) [Compound 89, 3-(5-{4-[(1-{2-[(4-{3,8-diazabicyclo[3.2.1]octan-3-yl}-7-(8-ethynyl-7-fluoro-3-hydroxynaphthalen-1-yl)-8-fluoropyrido[4,3-d]pyrimidin-2-yl)oxy]ethyl}piperidin-4-yl)methyl]piperidin-1-yl}-3-methyl-2-oxo-2,3-dihydro-1H-1,3-benzodiazol-1-yl)piperidine-2,6-dione] displayed a Dmax of more than 70% and a DC50 of less than 5.1 µM.

As to `C#Cc1c(F)ccc2cc(O)cc(-c3ncc4c(N5CC6CCC(C5)N6)nc(OCCN5CCC(CC6CCN(CC7CCN(c8cccc9c8C(=O)N(C8CCC(=O)NC8=O)C9=O)CC7)CC6)CC5)nc4c3F)c12` (stereo not shown) [Compound 75], the DC50 was less than 5.1 µM.
